One assay addresses USP1-UAF1 (Homo sapiens, UniProt O94782). Briefly: Ubiquitin Rhodamine assay for USP1-UAF1 activity. The class given is biochemical. The procedure: Certain compounds of the disclosure were assessed for USP1-UAF1 activity in a Ubiquitin Rhodamine assay as described in Example 135.
The test system of the next assay is monoubiquitinated PCNA. The assay is described as follows: AlphaLISA assay measuring monoubiquitinated PCNA in MDA-MB-436. The format is cell-based. The conditions noted are these: Homo sapiens, read-out: Alpha LISA IC50. From the text: Table 1 also indicates IC50 values for exemplary compounds in an AlphaLISA assay measuring monoubiquitinated PCNA in a BRCA1 mutant cell line (MDA-MB-436; column 7).
For orientation: Bead proximity is the source of the signal in Alpha formats.

The subject of assay [1] is HCC1954 (BRCA1 WT) cell line. The assay is described as follows: Viability assay in BRCA1 WT cell line HCC1954. The format is cell-based. Conditions: Homo sapiens, read-out: HCC 1954 IC50 rel IC50. The source says: (§1) Table 1 also indicates IC50 values in a viability assay for a non-isogenic pair of BRCA1 mutant (column 5—MDA-MB-436) and BRCA1 WT (column 6—HCC1954) cell lines. These values indicate the effect of treatment with compound on cell survival.

Assay [2] concerns MDA-MB-436 (BRCA1 mutant) cell line. The assay is described as follows: Viability assay in BRCA1 mutant cell line MDA-MB-436. The conditions noted are these: Homo sapiens, MDA-MB-436, viability, BRCA1 mutant MDA-MB-436; read-out: MDA-MB-436 rel IC50. The class given is cell-based.
Source text: as §1

Some results are limits rather than exact numbers.

USP1-UAF1, sequence (O94782 whole entry): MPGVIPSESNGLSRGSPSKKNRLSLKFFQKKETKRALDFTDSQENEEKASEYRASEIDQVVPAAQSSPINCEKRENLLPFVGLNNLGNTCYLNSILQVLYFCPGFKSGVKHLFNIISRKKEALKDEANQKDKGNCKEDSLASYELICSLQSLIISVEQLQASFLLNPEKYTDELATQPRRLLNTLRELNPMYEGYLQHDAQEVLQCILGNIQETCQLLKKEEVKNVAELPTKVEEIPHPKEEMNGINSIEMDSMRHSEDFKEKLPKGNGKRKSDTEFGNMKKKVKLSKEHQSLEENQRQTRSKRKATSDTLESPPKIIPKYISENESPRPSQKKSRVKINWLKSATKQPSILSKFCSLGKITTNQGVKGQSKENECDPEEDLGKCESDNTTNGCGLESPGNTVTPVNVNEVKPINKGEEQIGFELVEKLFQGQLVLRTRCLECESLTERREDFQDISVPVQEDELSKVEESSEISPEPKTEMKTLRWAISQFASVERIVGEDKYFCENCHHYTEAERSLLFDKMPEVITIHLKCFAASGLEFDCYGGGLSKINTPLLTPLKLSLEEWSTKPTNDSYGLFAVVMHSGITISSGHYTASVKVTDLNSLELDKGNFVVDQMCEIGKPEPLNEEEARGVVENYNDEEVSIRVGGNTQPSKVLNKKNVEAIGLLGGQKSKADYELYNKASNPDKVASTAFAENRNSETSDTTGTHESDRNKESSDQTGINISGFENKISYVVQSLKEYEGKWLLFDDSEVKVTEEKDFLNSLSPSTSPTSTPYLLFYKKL
USP1-UAF1, sequence (Q8TAF3 whole entry partner): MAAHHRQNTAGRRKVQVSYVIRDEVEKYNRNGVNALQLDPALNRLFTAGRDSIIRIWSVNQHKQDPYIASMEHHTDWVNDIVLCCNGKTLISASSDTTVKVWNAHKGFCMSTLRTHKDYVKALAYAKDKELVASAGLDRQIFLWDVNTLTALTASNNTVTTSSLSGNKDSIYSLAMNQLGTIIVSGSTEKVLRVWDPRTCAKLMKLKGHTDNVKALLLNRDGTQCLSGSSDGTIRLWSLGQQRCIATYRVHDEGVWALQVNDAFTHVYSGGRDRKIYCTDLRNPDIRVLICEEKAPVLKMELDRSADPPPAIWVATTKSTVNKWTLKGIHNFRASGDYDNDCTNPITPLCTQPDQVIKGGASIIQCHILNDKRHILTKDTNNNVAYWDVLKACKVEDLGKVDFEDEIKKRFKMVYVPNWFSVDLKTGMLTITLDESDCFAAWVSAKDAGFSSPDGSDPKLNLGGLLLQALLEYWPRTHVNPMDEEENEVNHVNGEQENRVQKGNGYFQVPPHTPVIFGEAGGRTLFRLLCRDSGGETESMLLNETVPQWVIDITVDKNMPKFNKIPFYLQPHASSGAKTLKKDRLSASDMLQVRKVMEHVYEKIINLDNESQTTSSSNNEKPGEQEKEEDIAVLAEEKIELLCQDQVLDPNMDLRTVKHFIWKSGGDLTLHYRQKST

As for `CC(C)Oc1ncnc(C2CC2)c1-c1ncc2[nH]cc(Cc3ccc(-c4nc(C(F)(F)F)cn4C)cc3)c2n1` [Compound 118, 2-(4-cyclopropyl-6-isopropoxy-pyrimidin-5-yl)-7-[[4-[1-methyl-4-(trifluoromethyl)imidazol-2-yl]phenyl]methyl]-5H-pyrrolo[3,2-d]pyrimidine], the IC50 was less than 0.03 µM on USP1-UAF1, less than 0.1 µM with monoubiquitinated PCNA, not below 10 µM in assay [1] and less than 0.1 µM in assay [2].

For `CC(C)c1ccccc1-c1ncc2[nH]cc(C(O)c3ccc(-c4nc(C(F)(F)F)cn4C)cc3)c2n1` (stereo not drawn) [Compound 1, [2-(2-isopropylphenyl)-5H-pyrrolo[3,2-d]pyrimidin-7-yl]-[4-[1-methyl-4-(trifluoromethyl)imidazol-2-yl]phenyl]methanol], the IC50 was 0.03 to 0.1 µM at USP1-UAF1, less than 0.1 µM in the assay with monoubiquitinated PCNA, not below 10 µM in assay [1] and less than 0.1 µM in assay [2].

In the case of `COc1ncnc(OC)c1-c1ncc2[nH]cc(Cc3ccc(-c4nc(C(F)(F)F)cn4C(C)C)cc3)c2n1` [Compound 182], the IC50 against USP1-UAF1 is 0.03 to 0.1 µM; in the assay with monoubiquitinated PCNA it was less than 0.1 µM; in assay [1] it was not below 10 µM; in assay [2] it was 0.1 to 0.25 µM.

For `COc1ncnc(C2CC2)c1-c1nc(C(F)(F)F)c2[nH]cc(Cc3ccc(-c4nc(C(F)(F)F)cn4C)cc3)c2n1` [Compound 121, 2-(4-cyclopropyl-6-methoxy-pyrimidin-5-yl)-7-[[4-[1-methyl-4-(trifluoromethyl)imidazol-2-yl]phenyl]methyl]-4-(trifluoromethyl)-5H-pyrrolo[3,2-d]pyrimidine], the IC50 was less than 0.03 µM against USP1-UAF1, less than 0.1 µM in the assay with monoubiquitinated PCNA, not below 10 µM in assay [1] and less than 0.1 µM in assay [2].

Take `COc1ncnc(C2CC2)c1-c1ncc2nn(S(C)(=O)=O)c(Cc3ccc(-c4nc(C(F)(F)F)cn4C)cc3)c2n1` [Compound 164, 5-(4-cyclopropyl-6-methoxy-pyrimidin-5-yl)-2-methylsulfonyl-3-[[4-[1-methyl-4-(trifluoromethyl)imidazol-2-yl]phenyl]methyl]pyrazolo[4,3-d]pyrimidine]: the IC50 on USP1-UAF1 was 0.03 to 0.1 µM; in the assay on monoubiquitinated PCNA, less than 0.1 µM; in assay [1], not below 10 µM; in assay [2], less than 0.1 µM.

In the case of `CCn1cc(C(F)(F)F)nc1-c1ccc(Cc2c[nH]c3cnc(-c4c(OC)ncnc4C4CC4)nc23)cc1` [Compound 15], the IC50 against USP1-UAF1 was less than 0.03 µM; in the assay on monoubiquitinated PCNA, 0.1 to 0.25 µM; in assay [1], not below 10 µM; in assay [2], less than 0.1 µM.

On to `CCOc1ncnc(C2CC2)c1-c1ncc2[nH]nc(Cc3ccc(-c4nc(C(F)(F)F)cn4C)cc3)c2n1` [Compound 126, 5-(4-cyclopropyl-6-ethoxy-pyrimidin-5-yl)-3-[[4-[1-methyl-4-(trifluoromethyl)imidazol-2-yl]phenyl]methyl]-1H-pyrazolo[4,3-d]pyrimidine], for which the IC50 at USP1-UAF1 was less than 0.03 µM; in the assay on monoubiquitinated PCNA it was less than 0.1 µM; in assay [1], 0.25 to 10 µM; in assay [2], less than 0.1 µM.

As for `COc1ncnc(OC)c1-c1ncc2[nH]nc(Cc3ccc(-c4nc(C(F)(F)F)cn4C)cc3)c2n1` [Compound 144], the IC50 at USP1-UAF1 was less than 0.03 µM; in the assay with monoubiquitinated PCNA, 0.1 to 0.25 µM; in assay [1], not below 10 µM; in assay [2], 0.1 to 0.25 µM.

Turning to `Cn1cc(C(F)(F)F)nc1-c1ccc(Cc2c[nH]c3cnc(-c4cccnc4OCC(F)(F)F)nc23)cc1` [Compound 78], the half-inhibitory concentration (IC50) at USP1-UAF1 was less than 0.03 µM; in the assay on monoubiquitinated PCNA, less than 0.1 µM; in assay [1], 0.25 to 10 µM; in assay [2], less than 0.1 µM.

In the case of `CCOc1ncnc(C2CC2)c1-c1ncc2[nH]cc(Cc3ccc(-c4nc(C(F)(F)F)cn4C)cc3)c2n1` [Compound 111, 2-(4-cyclopropyl-6-ethoxy-pyrimidin-5-yl)-7-[[4-[1-methyl-4-(trifluoromethyl)imidazol-2-yl]phenyl]methyl]-5H-pyrrolo[3,2-d]pyrimidine], the IC50 was 0.03 to 0.1 µM at USP1-UAF1, less than 0.1 µM in the assay with monoubiquitinated PCNA, not below 10 µM in assay [1] and less than 0.1 µM in assay [2].

Turning to `COc1ncnc(C2CC2)c1-c1ncc2[nH]cc(Cc3ccc(-c4nc(C(F)(F)F)cn4C)c(C)c3)c2n1` [Compound 113], the IC50 was less than 0.03 µM against USP1-UAF1, less than 0.1 µM in the assay on monoubiquitinated PCNA, not below 10 µM in assay [1] and less than 0.1 µM in assay [2].

In the case of `Cn1cc(C(F)(F)F)nc1-c1ccc(C(O)c2c[nH]c3cnc(-c4c(OC(F)F)ncnc4C4CC4)nc23)cc1` (stereo not drawn) [Compound 168, [2-[4-cyclopropyl-6-(difluoromethoxy)pyrimidin-5-yl]-5H-pyrrolo[3,2-d]pyrimidin-7-yl]-[4-[1-methyl-4-(trifluoromethyl)imidazol-2-yl]phenyl]methanol], the IC50 is 0.03 to 0.1 µM against USP1-UAF1, less than 0.1 µM in the assay with monoubiquitinated PCNA, 0.25 to 10 µM in assay [1] and less than 0.1 µM in assay [2].

For the compound `[2H]C([2H])([2H])n1nc(Cc2ccc(-c3nc(C(F)(F)F)cn3C)cc2)c2nc(-c3c(OC)ncnc3C3CC3)ncc21` [Compound 143, 5-(4-cyclopropyl-6-methoxy-pyrimidin-5-yl)-3-[[4-[1-methyl-4-(trifluoromethyl)imidazol-2-yl]phenyl]methyl]-1-(trideuteriomethyl)pyrazolo[4,3-d]pyrimidine], the IC50 against USP1-UAF1 is less than 0.03 µM; in the assay with monoubiquitinated PCNA it was less than 0.1 µM; in assay [1], not below 10 µM; in assay [2], less than 0.1 µM.

Turning to `COc1ncnc(C2CC2)c1-c1ncc2[nH]c(F)c(Cc3ccc(-c4nc(C(F)(F)F)cn4C)cc3)c2n1` [Compound 181, 2-(4-cyclopropyl-6-methoxy-pyrimidin-5-yl)-6-fluoro-7-[[4-[1-methyl-4-(trifluoromethyl)imidazol-2-yl]phenyl]methyl]-5H-pyrrolo[3,2-d]pyrimidine], the IC50 was less than 0.03 µM against USP1-UAF1, less than 0.1 µM with monoubiquitinated PCNA, not below 10 µM in assay [1] and less than 0.1 µM in assay [2].

Consider `COc1ncnc(C2CC2)c1-c1ncc2c(n1)c(Cc1ccc(-c3nc(C(F)(F)F)cn3C)cc1)cn2S(C)(=O)=O` [Compound 146, 2-(4-cyclopropyl-6-methoxy-pyrimidin-5-yl)-5-methylsulfonyl-7-[[4-[1-methyl-4-(trifluoromethyl)imidazol-2-yl]phenyl]methyl]pyrrolo[3,2-d]pyrimidine], for which the IC50 on USP1-UAF1 was less than 0.03 µM; in the assay with monoubiquitinated PCNA, 0.1 to 0.25 µM; in assay [1], not below 10 µM; in assay [2], less than 0.1 µM.

On to `CC(C)c1ccccc1-c1cc2c(Oc3ccc(-c4nc(C(F)(F)F)cn4C)cc3)c[nH]c2cn1` [Compound 14, 5-(2-isopropylphenyl)-3-[4-[1-methyl-4-(trifluoromethyl)imidazol-2-yl]phenoxy]-1H-pyrrolo[2,3-c]pyridine], for which the IC50 was less than 0.03 µM against USP1-UAF1, less than 0.1 µM with monoubiquitinated PCNA, not below 10 µM in assay [1] and less than 0.1 µM in assay [2].

As for `COc1ncccc1-c1ncc2[nH]cc(Cc3ccc(-c4nc(C(F)(F)F)cn4C)cc3)c2n1` [Compound 11, 2-(2-methoxy-3-pyridyl)-7-[[4-[1-methyl-4-(trifluoromethyl)imidazol-2-yl]phenyl]methyl]-5H-pyrrolo[3,2-d]pyrimidine], the concentration for half-maximal inhibition (IC50) at USP1-UAF1 was 0.03 to 0.1 µM; in the assay with monoubiquitinated PCNA, 0.1 to 0.25 µM; in assay [1], not below 10 µM; in assay [2], 0.25 to 10 µM.

With `COc1ncnc(C2CC2)c1-c1ncc2[nH]cc(Cc3ccc(-c4nc(C#N)cn4C)cc3)c2n1` [Compound 31, 2-[4-[[2-(4-cyclopropyl-6-methoxy-pyrimidin-5-yl)-5H-pyrrolo[3,2-d]pyrimidin-7-yl]methyl]phenyl]-1-methyl-imidazole-4-carbonitrile], the IC50 is 0.1 to 10 µM at USP1-UAF1, 0.25 to 10 µM with monoubiquitinated PCNA, not below 10 µM in assay [1] and 0.25 to 10 µM in assay [2].

`Cn1cc(C(F)(F)F)nc1-c1ccc(Cc2c[nH]c3cnc(-c4cccnc4N4CCC4)nc23)cc1` [Compound 67, 2-[2-(azetidin-1-yl)-3-pyridyl]-7-[[4-[1-methyl-4-(trifluoromethyl)imidazol-2-yl]phenyl]methyl]-5H-pyrrolo[3,2-d]pyrimidine]: the IC50 at USP1-UAF1 is 0.1 to 10 µM; in the assay on monoubiquitinated PCNA, 0.25 to 10 µM; in assay [1], not below 10 µM; in assay [2] it was 0.25 to 10 µM.

With `COc1ncnc(C2CC2)c1-c1ncc2[nH]cc(Cc3ccc(-c4nc(C(F)(F)F)cn4C4COC4)cc3)c2n1` [Compound 154, 2-(4-cyclopropyl-6-methoxy-pyrimidin-5-yl)-7-[[4-[1-(oxetan-3-yl)-4-(trifluoromethyl)imidazol-2-yl]phenyl]methyl]-5H-pyrrolo[3,2-d]pyrimidine], the IC50 on USP1-UAF1 was 0.03 to 0.1 µM; with monoubiquitinated PCNA, 0.1 to 0.25 µM; in assay [1], not below 10 µM; in assay [2], less than 0.1 µM.

With `COc1ncnc(C2CC2(F)F)c1-c1ncc2[nH]nc(Cc3ccc(-c4nc(C(F)(F)F)cn4C)cc3)c2n1` (stereo not drawn) [Compound 172, 5-[4-(2,2-difluorocyclopropyl)-6-methoxy-pyrimidin-5-yl]-3-[[4-[1-methyl-4-(trifluoromethyl)imidazol-2-yl]phenyl]methyl]-1H-pyrazolo[4,3-d]pyrimidine], the IC50 against USP1-UAF1 is less than 0.03 µM; in the assay on monoubiquitinated PCNA it was less than 0.1 µM; in assay [1] it was not below 10 µM; in assay [2] it was less than 0.1 µM.

In general, IC50 refers to the concentration that gives 50% inhibition.

Values taken from patent publication US20240182481A1 (Tango Therapeutics, Inc., priority 2021, published 2024).
